Values after ≈ are worked out from the molar mass of the structure shown.

Here are results for 1 compound from publication PMC13401508 (Pharmacological research, 2026).

For data set [1], the system named is PDGF-AA. In words: PDGF-AA mRNA expression by qRT-PCR in PC cells. In kind it is cell-based, human. The note with it: 24 hrs. Here is the method: (§1) Total RNA was extracted from cells using miRNeasy kits (Qiagen), and cDNA was prepared as described previously. Gene specific TaqMan Probes were obtained from Applied Bio system, Thermo-Fisher, USA. qRT-PCR was performed using an ABI Quant Studio real-time PCR.
(§2) Fig. 2. […] NF-κB activity was measured by absorbance at 450 nm (n = 3 ± SD; * p < 0.05). […] C) PDGF-AA protein levels were determined in the three PC cell line-derived conditioned media by ELISA. In both panels: n = 3 ± SD; * p < 0.05.

For data set [2], the system named is CXCL5. Description: CXCL5 mRNA by qRT-PCR in HS5 cells. In kind it is cell-based, human. The settings on record: PDGF-AA activated HS5 cells, 24 hrs. The procedure:
as §1
(§3) Fig. 3. […] CXCL5 mRNA expression was measured by qRT-PCR. […] Secreted CXCL5 in CM was measured by ELISA (n = 3 ± SD; * p < 0.05). […] CXCL5 mRNA expression was measured by qRT-PCR (n = 3 ± SD; * p < 0.05).
(In general: Quantitative PCR measures a nucleic acid by following its amplification.)

Data set [3] deals with CXCL5. Description: Secreted CXCL5 by ELISA in HS5 conditioned media. In kind it is cell-based, human. The note with it: PDGF-AA activated HS5 cells, 24 hrs. The procedure: (§4) Human and mouse specific CXCL5, PDGF-AA ELISA kits were obtained from R&D Systems, USA. All ELISAs were performed using the manufacturer’s protocol.
as §3

Data set [4] is described as follows: Thermodynamic solubility in PBS, pH 7.4. In kind it is physicochemical.
Data set [5] has as its system PDGF-AA. In words: PDGF-AA protein in conditioned media by ELISA. In kind it is cell-based, human. The settings on record: conditioned media of PC3-ML, ARCaP-M and C4–2B cells. Here is the method:
as §4, §2
(An ELISA detects its analyte on a solid surface through an enzyme-linked reagent.)

For data set [6], the system named is PDGFRα. In words: Western blot, PDGF-AA activated HS5 cells: PDGFRα. In kind it is cell-based, human. The settings on record: PDGF-AA 10 ng/ML, 25 μM, 24 hrs. For orientation: In western blotting, separated proteins are transferred to a membrane and probed.
Data set [7] concerns the target T1, PXR (Homo sapiens, UniProt O75469).
T1 construct: expressed in transfected cells; host or cells: DPX2 cells
T1 sequence (O75469 1-434): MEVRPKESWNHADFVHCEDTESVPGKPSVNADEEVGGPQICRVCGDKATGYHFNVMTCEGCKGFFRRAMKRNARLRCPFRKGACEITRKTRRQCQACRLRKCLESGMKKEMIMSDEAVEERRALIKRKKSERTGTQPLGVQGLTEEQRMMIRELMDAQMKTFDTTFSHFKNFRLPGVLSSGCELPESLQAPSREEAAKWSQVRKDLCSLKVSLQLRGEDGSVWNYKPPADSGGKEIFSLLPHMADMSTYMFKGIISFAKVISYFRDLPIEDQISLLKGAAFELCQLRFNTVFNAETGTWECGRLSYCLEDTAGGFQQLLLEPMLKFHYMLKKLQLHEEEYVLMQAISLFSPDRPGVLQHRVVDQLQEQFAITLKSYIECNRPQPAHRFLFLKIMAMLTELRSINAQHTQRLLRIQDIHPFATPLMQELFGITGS
Description: PXR assay using DPX2 cells. In kind it is cell-based. Here is the method:
DPX2 cells were initially cultured in T-75 flasks and maintained at 37°C in a humidified incubator with 5% CO2 and 95% relative humidity. Cells were allowed to reach 70-80% confluence prior to subculture. Next, cells were transferred to a culture plate and incubated for an additional 24 hours to allow for attachment and recovery prior to treatment. […] Cell viability and luciferase activity were measured using the CellTiter-Fluor™ Cell Viability Assay and One-GloTM Luciferase Assay System, respectively. Luciferase activity was normalized to viable number and fold activation of PXR was calculated using the following equation: […]

In data set [8] the test system is MST. Description: Western blot, PDGF-AA activated HS5 cells: MST. In kind it is cell-based, human. The note with it: PDGF-AA 10 ng/ML, 25 μM, 24 hrs.
Data set [9] concerns NF-κB p65. Description: NF-κB p65 transcription factor activation assay. In kind it is cell-based, human. The settings on record: PC3-ML, ARCaP-M and C4–2B cells, 24 hrs, vs vehicle. Here is the method:
NF-κB p65 transcription factor assay kits were obtained from Cayman Chemical, USA and performed following the manufacturer’s instructions.
as §2

A short description of data set [10]: Dynamic vapor sorption (DVS). In kind it is physicochemical. The note with it: for moisture adsorption: 25°C. Here is the method: Hygroscopicity and moisture absorption of IVMT-Rx-4 were assessed using dynamic vapor sorption on a DVS instrument (SMS, DVS Intrinsic). Samples 20.4 mg in size were first treated at 25°C for several hours while under nitrogen flow. They were then treated with water vapor at various partial pressures with relative humidities which ranged from 0 to 90% at 25°C.

In data set [11] the test system is CYP1A2, 2A6, 2B6, 2C8, 2C9, 2C19, 2D6 (the other isoforms of the panel). In words: Drug-substrate based CYP inhibition, other isoforms of the panel. In kind it is in vitro ADME. The settings on record: human liver microsomes; isoforms of the panel not given; read-out: Drug-substrate based CYP Inhibition, others. The procedure:
(§5) IVMT-Rx-4 was incubated with selective probe substrates of each CYP isoform in the presence of human liver microsomes. The formation of metabolite was quantified using LC-MS/MS methods. The extent of inhibition was assessed by calculating the remaining enzyme activity and percent inhibition based on analyte-to-internal standard area ratios, using the following equations:
(§6) Area Ratio = Peak AreaAnalyte / Peak AreaInternal Standard
(§7) Remaining Activity (%) = Area Ratiotest compound / Area Ratiovehicle ×100
(§8) Inhibition (%) = 100 ̶ Remaining Activity (%)

Data set [12] concerns CYP 1A2, 2A6, 2B6, 2C8, 2C9, 2C19, 2D6, 2E1, 3A4_M, 3A4_T (the others). The description is as above. In kind it is in vitro ADME. The note with it: human liver microsomes; isoforms of the panel not given. Here is the method: as §5, §6, §7, §8

Turning to `Cc1cc(NC(=O)CCc2nnc(-c3ccccc3)o2)c(C)cc1N` [IVMT-Rx-4], the “PDGF-AA levels in mda-9 knockout clones” value in [1] (PC3-ML mda-9 KO and ARCaP-M mda-9 KO) is “did not further reduce PDGF-AA levels”. In addition, the “PDGF-AA mRNA level” value in [1] (PC3-ML, ARCaP-M and C4–2B cells, 25 μM or 50 μM) is on record as “decreased PDGF-AA”. Further, the “CXCL5 mRNA level” value in data set [2] is reported as “significantly decreased”. In data set [3], the CXCL5 protein level result is “significantly decreased”. The “Thermodynamic solubility in PBS, pH 7.4” value in data set [4] is reported as roughly 160 mg/ML. The solubility (thermodynamic) in [4] (pH 7.4, aqueous buffer, thermodynamic from solid) stood at 160 mg/mL (≈ 476 mM). In addition, the PDGF-AA protein level entry in data set [5] is “decreased PDGF-AA”. In data set [6], the “PDGFRα activation (phosphorylated PDGFRα)” value is “downregulation of phosphorylated PDGFRα”. Besides, in data set [7], the PXR assay entry is given as “No induction”. Further, in data set [8], the “phosphorylation of MST” value is reported as “promoted the phosphorylation of MST”. The NF-κB activity result in [9] is recorded as “decreased NF-κB activity”. The moisture adsorption was 0.98% in data set [10] (80% RH) and 1.06% in data set [10] (90% RH). In data set [10] (DVS), the hygroscopicity entry is recorded as “slightly hygroscopic”. Further, the IC50 in [11] is greater than 10 µM. Moreover, the “Drug-substrate based CYP Inhibition, others” value in data set [12] was “no inhibitory effects”.

What is called thermodynamic solubility is the concentration in solution at equilibrium with solid.
